The text below walks through data of patent US12404261B2, “Compounds and compositions for treating conditions associated with cGAS” (Novartis AG, priority 2020, dated 2025).

The structures appear in SMILES notation.

The IC50 is the concentration that inhibits the measured activity by half.

human truncated cGAS enzyme (147-522 human cGAS), sequence (Q8N884 147-522): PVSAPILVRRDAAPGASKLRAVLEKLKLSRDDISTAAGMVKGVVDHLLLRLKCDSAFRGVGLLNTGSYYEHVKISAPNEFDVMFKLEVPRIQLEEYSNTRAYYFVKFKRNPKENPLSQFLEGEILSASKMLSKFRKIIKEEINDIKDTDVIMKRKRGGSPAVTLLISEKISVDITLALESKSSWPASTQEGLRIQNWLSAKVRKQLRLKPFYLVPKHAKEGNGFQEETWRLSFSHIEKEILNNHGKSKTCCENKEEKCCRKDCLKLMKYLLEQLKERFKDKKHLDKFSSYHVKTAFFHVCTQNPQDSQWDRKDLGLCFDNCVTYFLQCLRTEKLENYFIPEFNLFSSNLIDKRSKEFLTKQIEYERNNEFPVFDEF

One assay concerns the target human truncated cGAS enzyme (147-522 human cGAS) (Homo sapiens (Human), UniProt Q8N884). Description: Quantification of cGAS protein inhibition (cGAMP formation measured by LC-MS/MS). The format is biochemical. Particulars: reported for the potential mixture in solution of co-existing tautomers and/or racemates. As to the method:
A reagent buffer was prepared in filtered and autoclaved water according to the following: • 50 mM Tris-buffer pH 7.5 (1 M Tris-buffer pH 7.5, Invitrogen, Cat. No. 15567-027); • 50 mM NaCl (5 M NaCl, Sodium Chloride Solution, Sigma, 59222C-); • 5 mM MgCl2 (1 M MgCl2, Sigma, M1028); • 0.1 mM ZnCl2 (Zinc Chloride [7646-85-7], powder, Cell Culture Tested, Sigma, Z-0152); and • 0.001% Tween 20 (TWEEN 20, Sigma Aldrich, P1379-).
A buffer for the cGAS enzyme was prepared in filtered and autoclaved water according to the following: • 50 mM Tris-buffer pH 7.5; • 5 mM MgCl2; and • 0.001% Tween 20.
Compounds were dispensed to a […]. The human truncated cGAS enzyme (4.2 mg/mL 147-522 human cGAS, MW 43,909 g/mol) was stored in 50 mM Tris, 500 mM NaCl, 5% (v/v) glycerol at pH 8 and diluted in the cGAS buffer enzyme shortly before use. The enzyme solution was transferred into the reagent buffer to give a final concentration of 30 nM. The reaction was started by mixing the enzyme with ISD (a 45 bp double stranded DNA, MW 27,670 g/mol, 5 mM), GTP and ATP to a final concentration of 5 μM, 0.5 mM and 0.5 mM respectively in a final volume of 10 μl. The reaction plates were then centrifuged at 1000 rpm for 1 minute and incubated at room temperature for 1 h. After 1 h of incubation, [^5Ns]-2′3′-cGAMP to a final concentration of 200 nM and 30 μL of 100% acetonitrile/0.175% of TFA were added to the reaction mixture. The plates were centrifuged at 1000 rpm for 1 minute before being sealed for 3 seconds at 170° C. using a ThermoScientific sealer (ALPS™ 50V) and an aluminum sealing cover (Pierce Seal, 4titude, Product Code: 4TI-0531).
The concentration of cGAMP was measured on a LC-MS/MS system consisting of a THERMO Dionex Ultimate LC system with a high pressure pump, an autosampler, a column heating compartment (Reinach, Switzerland) and a SCIEX Triple Quad 5500 (Framingham, MA, USA) mass spectrometer for detection. The sample plates were centrifuged for 10 minutes at 2000 rpm. Up to three plates were placed in the autosampler for injection. An aliquot of 10 μL of each sample was injected on an XBridge BEH Amide 3.5 μm, 2.1×50 mm column (P/N 186004859) with an XBridge BEH Amide 5 μm 2.1×5 mm VanGuard Cartridge (P/N 186007760) pre-column (both WATERS, MA, USA) held at 40° C. An isocratic flow of 1.0 mL/min solvent (60% ACN, 8 mM ammonium acetate, 5 mM ammonium hydroxide, 0.04% acetic acid) was applied and sprayed into the ion source of the mass spectrometers. The MS parameters were optimized based on the properties of the compounds to be detected and run in positive multi-reaction mode (MRM) based on the mass transitions. LC and MS parameters were also optimized to allow for a sample-to-sample measuring time of approximately 75 sec and a run time of 8 hours per 384-well plate. All data were analyzed with Excel; and the dose response curves were generated using the auto fitting function of XLfit. The IC50 was determined by plotting the cGAMP concentration ratio (cGAMP divided by the internal standard [^15Ns]-2′3′-cGAMP) versus the concentration of compound.
With `COCC(c1nnc(-c2c(-n3ccnc3)c3cc(OC)c(Cl)c(F)c3n2C)[nH]1)N(C)C` (racemic) [Example 124, 1-(5-(6-chloro-7-fluoro-3-(1H-imidazol-1-yl)-5-methoxy-1-methyl-1H-indol-2-yl)-4H-1,2,4-triazol-3-yl)-2-methoxy-N,N-dimethylethan-1-amine], the IC50 was 122 nM. In the case of `CNC(COC)c1nnc(-c2c(-n3ccnc3)c3cc(OC)c(Cl)c(F)c3n2C)[nH]1` (racemic) [Example 125, 1-(5-(6-chloro-7-fluoro-3-(1H-imidazol-1-yl)-5-methoxy-1-methyl-1H-indol-2-yl)-4H-1,2,4-triazol-3-yl)-2-methoxy-N-methylethan-1-amine], the half-inhibitory concentration (IC50) was determined as 74 nM.

The assay is the same for the next values; noted with them: reported for the potential mixture of co-existing tautomers and/or racemates.
Turning to `COc1cc2c(-c3cn[nH]c3)c(-c3nnc(C(F)(F)F)[nH]3)n(C)c2c(F)c1Cl` [Example 1, 6-Chloro-7-fluoro-5-methoxy-1-methyl-3-(1H-pyrazol-4-yl)-2-(5-(trifluoromethyl)-4H-1,2,4-triazol-3-yl)-1H-indole], the IC50 stood at 74 nM. On to `COc1cc2c(-c3cn[nH]c3)c(-c3nnc(C(=O)N(C)C)[nH]3)n(C)c2c(F)c1Cl` [Example 2, 5-(6-chloro-7-fluoro-5-methoxy-1-methyl-3-(1H-pyrazol-4-yl)-1H-indol-2-yl)-N,N-dimethyl-4H-1,2,4-triazole-3-carboxamide], for which the 50% inhibitory concentration (IC50) is 46 nM. As to `COc1cc2c(-c3cn[nH]c3)c(-c3nnc(F)[nH]3)[nH]c2c(F)c1Cl` [Example 3, 6-chloro-7-fluoro-2-(5-fluoro-4H-1,2,4-triazol-3-yl)-5-methoxy-3-(1H-pyrazol-4-yl)-1H-indole], the 50% inhibitory concentration (IC50) worked out at 30 nM. Regarding `COc1cc2c(-c3cn[nH]c3)c(-c3nnc(C(F)(F)F)[nH]3)[nH]c2c(F)c1Cl` [Example 4, 6-chloro-7-fluoro-5-methoxy-3-(1H-pyrazol-4-yl)-2-(5-(trifluoromethyl)-4H-1,2,4-triazol-3-yl)-1H-indole], the IC50 is 33 nM. `Clc1ccc2c(-c3cn[nH]c3)c(-c3nnc(Br)[nH]3)[nH]c2c1Cl` [Example 5, 2-(5-bromo-4H-1,2,4-triazol-3-yl)-6,7-dichloro-3-(1H-pyrazol-4-yl)-1H-indole]: the 50% inhibitory concentration (IC50) is 93 nM. For the compound `N#Cc1cc2c(-c3cn[nH]c3)c(-c3nnc(C(F)(F)F)[nH]3)[nH]c2c(F)c1Cl` [Example 6, 6-chloro-7-fluoro-3-(1H-pyrazol-4-yl)-2-(5-(trifluoromethyl)-4H-1,2,4-triazol-3-yl)-1H-indole-5-carbonitrile], the IC50 was found to be 152 nM. Regarding `COCC(=O)c1nnc(-c2[nH]c3c(Cl)c(Cl)ccc3c2-c2cn[nH]c2)[nH]1` [Example 7, 1-(5-(6,7-dichloro-3-(1H-pyrazol-4-yl)-1H-indol-2-yl)-4H-1,2,4-triazol-3-yl)-2-methoxyethan-1-one], the half-inhibitory concentration (IC50) was found to be 30 nM. For `Cn1c(-c2nnc(C(F)(F)F)[nH]2)c(-c2cn[nH]c2)c2cc(C#N)c(Cl)c(F)c21` [Example 8, 6-chloro-7-fluoro-1-methyl-3-(1H-pyrazol-4-yl)-2-(5-(trifluoromethyl)-4H-1,2,4-triazol-3-yl)-1H-indole-5-carbonitrile], the IC50 amounted to 134 nM. The same measure, in the same setting: next, `COCC(F)(F)c1nnc(-c2[nH]c3c(Cl)c(Cl)ccc3c2-c2cn[nH]c2)[nH]1` [Example 9, 6,7-dichloro-2-(5-(1,1-difluoro-2-methoxyethyl)-4H-1,2,4-triazol-3-yl)-3-(1H-pyrazol-4-yl)-1H-indole]: 30 nM; `COCC(F)c1nnc(-c2[nH]c3c(Cl)c(Cl)ccc3c2-c2cn[nH]c2)[nH]1` (centres unmarked) [Example 10, 6,7-dichloro-2-(5-(1-fluoro-2-methoxyethyl)-4H-1,2,4-triazol-3-yl)-3-(1H-pyrazol-4-yl)-1H-indole]: 74 nM.

For the compound `Cn1c(-c2nnc(C(F)(F)F)[nH]2)c(-c2cn[nH]c2)c2ccc(Cl)c(Cl)c21` [Example 12, 6,7-dichloro-1-methyl-3-(1H-pyrazol-4-yl)-2-(5-(trifluoromethyl)-4H-1,2,4-triazol-3-yl)-1H-indole], the 50% inhibitory concentration (IC50) was determined as 48 nM. As for `FC(F)(F)Cc1nnc(-c2[nH]c3c(Cl)c(Cl)ccc3c2-c2cn[nH]c2)[nH]1` [Example 13, 6,7-dichloro-3-(1H-pyrazol-4-yl)-2-(5-(2,2,2-trifluoroethyl)-4H-1,2,4-triazol-3-yl)-1H-indole], the half-maximal inhibitory concentration (IC50) worked out at 178 nM. On the same count and under the same terms, the value for `Fc1ccc2c(-c3cn[nH]c3)c(-c3nnc(C(F)(F)F)[nH]3)[nH]c2c1F` [Example 14, 6,7-difluoro-3-(1H-pyrazol-4-yl)-2-(5-(trifluoromethyl)-4H-1,2,4-triazol-3-yl)-1H-indole] was 196 nM. On the same count and under the same terms, the value for `OCCc1nnc(-c2[nH]c3c(Cl)c(Cl)ccc3c2-c2cn[nH]c2)[nH]1` [Example 15, 2-(5-(6,7-dichloro-3-(1H-pyrazol-4-yl)-1H-indol-2-yl)-4H-1,2,4-triazol-3-yl)ethan-1-ol] was 188 nM; that for `Fc1c(Cl)ccc2c(-c3cn[nH]c3)c(-c3nnc(C(F)(F)F)[nH]3)[nH]c12` [Example 16, 6-chloro-7-fluoro-3-(1H-pyrazol-4-yl)-2-(5-(trifluoromethyl)-4H-1,2,4-triazol-3-yl)-1H-indole] was 44 nM. Still for that read-out and setting: next, `COc1c(Cl)ccc2c(-c3cn[nH]c3)c(-c3nnc(C(F)(F)F)[nH]3)[nH]c12` [Example 17, 6-chloro-7-methoxy-3-(1H-pyrazol-4-yl)-2-(5-(trifluoromethyl)-4H-1,2,4-triazol-3-yl)-1H-indole]: 1490 nM; `FC(F)(F)c1nnc(-c2[nH]c3cc(Cl)c(Cl)cc3c2-c2cn[nH]c2)[nH]1` [Example 18, 5,6-dichloro-3-(1H-pyrazol-4-yl)-2-(5-(trifluoromethyl)-4H-1,2,4-triazol-3-yl)-1H-indole]: 165 nM; `N#Cc1c(Cl)ccc2c(-c3cn[nH]c3)c(-c3nnc(C(F)(F)F)[nH]3)[nH]c12` [Example 19, 6-chloro-3-(1H-pyrazol-4-yl)-2-(5-(trifluoromethyl)-4H-1,2,4-triazol-3-yl)-1H-indole-7-carbonitrile]: 150 nM. Take `COc1cc2c(-c3cn[nH]c3)c(-c3nnc(C(F)(F)F)[nH]3)n(C)c2cc1Cl` [Example 20, 6-chloro-5-methoxy-1-methyl-3-(1H-pyrazol-4-yl)-2-(5-(trifluoromethyl)-4H-1,2,4-triazol-3-yl)-1H-indole]: the IC50 was found to be 116 nM.

Regarding `CCOC(=O)c1nnc(-c2[nH]c3c(Cl)c(Cl)ccc3c2-c2cn[nH]c2)[nH]1` [Example 21, ethyl 5-(6,7-dichloro-3-(1H-pyrazol-4-yl)-1H-indol-2-yl)-4H-1,2,4-triazole-3-carboxylate], the IC50 is 30 nM.

On to `NC(=O)c1nnc(-c2[nH]c3c(Cl)c(Cl)ccc3c2-c2cn[nH]c2)[nH]1` [Example 22, 5-(6,7-dichloro-3-(1H-pyrazol-4-yl)-1H-indol-2-yl)-4H-1,2,4-triazole-3-carboxamide], for which the concentration for half-maximal inhibition (IC50) came out at 30 nM. Consider `Cn1c(-c2nnc(C(F)(F)F)[nH]2)c(-c2cn[nH]c2)c2cc(Cl)c(Cl)cc21` [Example 23, 5,6-dichloro-1-methyl-3-(1H-pyrazol-4-yl)-2-(5-(trifluoromethyl)-4H-1,2,4-triazol-3-yl)-1H-indole], for which the IC50 came to 112 nM. In the case of `COc1cc2c(-c3cn[nH]c3)c(-c3nnc(C(F)(F)F)[nH]3)[nH]c2cc1Cl` [Example 24, 6-chloro-5-methoxy-3-(1H-pyrazol-4-yl)-2-(5-(trifluoromethyl)-4H-1,2,4-triazol-3-yl)-1H-indole], the half-maximal inhibitory concentration (IC50) is 69 nM. Same read-out and setting: next, `COc1cc2c(-c3cn[nH]c3)c(-c3nnc(C(F)(F)F)[nH]3)n(CCO)c2cc1Cl` [Example 25, 2-(6-chloro-5-methoxy-3-(1H-pyrazol-4-yl)-2-(5-(trifluoromethyl)-4H-1,2,4-triazol-3-yl)-1H-indol-1-yl)ethan-1-ol]: 1430 nM.
